# Experimental data: patent US20210062139A1, “CELL AGGREGATION SUPPRESSOR” (KANEKA CORPORATION, priority 2017, published 2021)
# How the values were obtained:
# Format in all cases: cell-based
# [1] = tested on: human iPS cells (TkDN4-M cell line); assay: Cell aggregation assay: suspension (swirling) culture of human iPS cells, phase contrast microscopy; details: Day 1 of culture; for cell aggregation suppression (aggregate formation observed by microscopy): compared to only Y-27632
# Description: TkDN4-M cell lines (Institute of Medical Science, The University of Tokyo) were used as human iPS cells. Human iPS cells were seeded on cell culture dishes coated with Vitronectin (Thermo Fisher Scientific Co., Ltd.) and subjected to a maintenance culture using Essential 8™ (Thermo Fisher Scientific Co., Ltd.) as the culture medium. Accutase (Thermo Fisher Scientific Co., Ltd.) was used as a cell detachment agent during passage. In addition, when the cells were seeded, Y-27632 (Wako Pure Chemical Industries, Ltd.) at a concentration of 10 μM was added to a culture medium. The culture medium was changed every day. For experiments, human iPS cells (the number of passage was 50 or less) were used.
# The resulting cells were suspended in Essential 8™ culture medium comprising a final concentration of 5 mg/mL of BSA (Wako Pure Chemical Industries, Ltd.) and 10 μM of Y-27632 (Wako Pure Chemical Industries, Ltd.), and a portion thereof was stained with trypan blue and the number of cells was counted. The cell suspension was prepared so as to contain 2×10^5 cells per mL. […] Then the cells were seeded at a ratio of 1.3 mL/well in a 12-well plate for suspension culture (Sumitomo Bakelite Co., Ltd.). The cell-seeded plate was subjected to a swirling culture on a rotary shaker (OPTIMA, Inc.) at a speed of 90 rpm along the horizontal plane to draw a circle with a swirling width (diameter) of 25 mm, and cells were cultured in suspension under a condition at 5% CO2 and 37° C. At the next day after the start of culture (Day 1 of culture), images were obtained by phase contrast microscopy. A control test was conducted using a cell suspension prepared under the same condition as above except that Y-27632 and TRAP-6 were not added.
# (§1) A cell suspension was prepared in the same manner as in Example 2, and separately, the cell aggregation suppressor was adjusted so that the final concentration of TRAP-6 (same as above) was 3.74 mg/mL (10 mM). Then the adjusted cell aggregation suppressor was added to the cell suspension so that the final concentration of the agonist of a thrombin receptor was 5 μM. Then the cells were seeded at a ratio of 4 mL/well in a 6-well plate for suspension culture (Sumitomo Bakelite Co., Ltd.). The cell-seeded plate was subjected to a swirling culture on a rotary shaker (OPTIMA, Inc.) at a speed of 75 rpm along the horizontal plane to draw a circle with a swirling width (diameter) of 25 mm, and cells were cultured in suspension under a condition at 5% CO2 and 37° C. After the next day of culture (Day 1 of culture), the culture medium was exchanged daily for fresh medium (Essential 8™ culture medium containing BSA (Wako Pure Chemical Industries, Ltd.) at a final concentration of 5 mg/mL), and the culture continued until Day 5 of culture. A control test was conducted using a cell suspension prepared under the same condition as described above except that TRAP-6 was not added. Images were obtained by phase contrast microscopy every day during culture. The concentration of glucose contained in the culture supernatant collected at the time of culture medium exchange was measured with biosensor BF-5iD (Prince Measuring Equipment Co., Ltd.) to calculate glucose consumption.
# Cell suspensions were prepared in the same manner as in Example 2 using human iPS cells cultured with the protocol of Example 1, and instead of TRAP-6, a PAR-1 agonist (Proteinase Activated Receptor-1; PAR-1 agonist, ANASPEC, AS-62937, a C-terminal amidated peptide consisting of the amino acid sequence of TFLLRN (SEQ ID NO: 8)) was added so that a final concentration thereof was 32.8 μM or S1P (sphingosine-1-phosphate; Cayman, 62570) (positive control) was added so that the final concentration thereof was 0.8 μg/mL). Then, suspension culture and image acquisition were performed in the same manner as in Example 2.
# [2] = tested on: human iPS cells (TkDN4-M cell line); assay: Glucose consumption during suspension culture of human iPS cells; details: TRAP-6 5 μM on Day 1, then TRAP-6-free medium, Day 1 to Day 5, compared to TRAP-6 non-added condition
# Description: as §1, with “A control test was conducted using a cell suspension prepared under the same condition as described above except that TRAP-6 was not added. Images were obtained by phase contrast microscopy every day during culture.” left out
# [3] = tested on: human iPS cells (TkDN4-M cell line); assay: Size distribution of cell aggregates (width of widest portion in micrograph); details: TRAP-6 5 μM, Day 1 of culture
# Description: as §1
# For cells cultured in suspension in the presence of TRAP-6 according to Example 3, 210 cell aggregates in an image acquired at Day 1 of culture were observed and compared using a micrograph scale, the width of the widest portion (referred to as “ϕ”) of each cell aggregate was measured, then distribution thereof was examined, and the average±standard deviation was calculated.
# [4] = tested on: human iPS cells (TkDN4-M cell line); assay: Percentage of cells positive for undifferentiation markers (flow cytometry); details: Day 5 of culture
# Description: as §1
# In addition, at Day 5 of culture, cell aggregates were collected, dispersed with Accutase, and then suspended in Essential 8™ culture medium containing 5 mg/mL BSA. A portion of this cell suspension was stained with trypan blue and the number of cells was counted. After the above cell suspensions were centrifuged at 300 g for 3 minutes, the supernatant was then removed, and the cells were washed with PBS (phosphate buffered saline). Next, the cells were fixed with 4% paraformaldehyde (Wako Pure Chemical Industries, Ltd.) at room temperature for 20 minutes, then washed 3 times with PBS. After cells were resuspended with 300 μL of PBS, 3 mL of cold methanol was added while stirring with voltex, and permeabilized at −20° C. overnight or more. After 3 washes with 3% FBS (fetal bovine serum)/PBS, cells were resuspended with 3% FBS (fetal bovine serum)/PBS and blocked at room temperature for 30 minutes to 1 hour. Subsequently, the cells were stained with fluorescently labeled anti-SOX2 antibodies (Cat. No. 656110, BioLegend, Inc.) and fluorescently labeled anti-OCT4 antibodies (Cat. No. 653703, BioLegend, Inc.) and fluorescently labeled anti-Nanog antibodies (Cat. No. 674010, BioLegend, Inc.) at 4° C. for 30 minutes to 1 hour. […] The resulting cells were analyzed on FACSVerse. […]
# [5] = tested on: human iPS cells (TkDN4-M cell line); assay: Cell yield at Day 5 of suspension culture (trypan blue count); details: TRAP-6 5 μM on Day 1, then TRAP-6-free medium; seeded 8×10^5 cells/well
# Description: as §1, with “After the next day of culture (Day 1 of culture), the culture medium was exchanged daily for fresh medium (Essential 8™ culture medium containing BSA (Wako Pure Chemical Industries, Ltd.) at a final concentration of 5 mg/mL), and the culture continued until Day 5 of culture. A control test was conducted using a cell suspension prepared under the same condition as described above except that TRAP-6 was not added. Images were obtained by phase contrast microscopy every day during culture.” left out
# Cell yields were also measured at Day 5 of culture. […] After that, the number of cells was counted using a hemocytometer to determine the cell yield.
# [6] = TRAP-6 5 μM on Day 1, then TRAP-6-free medium
compound,measurement,setting,value
"CCCCCCCCCCCCC/C=C/[C@@H](O)[C@@H](N)COP(=O)(O)O [S1P, sphingosine-1-phosphate]",cell aggregation suppression (aggregate formation observed by microscopy),[1]; S1P 0.8 μg/mL (positive control) with Y-27632 10 μM,aggregation was suppressed and smaller aggregates were formed
"C[C@@H](N)[C@H]1CC[C@H](C(=O)Nc2ccncc2)CC1 [Y-27632, 4-[(1R)-1-aminoethyl]-N-pyridin-4-ylcyclohexane-1-carboxamide]",aggregate formation observed by microscopy,"[1]; Y-27632 10 μM alone, compared to control without Y-27632",aggregates were formed
Thrombin Receptor Activator for Peptide 6 [TRAP-6],glucose consumption,[2],greater than that under the TRAP-6 non-added condition
same,percentage of cell aggregates with size (diameter) 40 μm or more and 300 μm or less,[3],100%
same,percentage of cell aggregates with size (diameter) 60 μm or more and 300 μm or less,[3],100%
same,percentage of cell aggregates with size (diameter) 80 μm or more and 300 μm or less,[3],98.0%
same,percentage of cell aggregates with size (diameter) 100 μm or more and 300 μm or less,[3],97.0%
same,average±standard deviation of cell aggregate size (diameter),[3]; 210 cell aggregates,167.8±35.3 μm
same,Number of cell aggregates by size,[3]; size range 40- μm,0
same,Percentage of cell aggregates by size,[3]; size range 40- μm,0%
same,Number of cell aggregates by size,[3]; size range 60- μm,4
same,Percentage of cell aggregates by size,[3]; size range 60- μm,2%
same,Number of cell aggregates by size,[3]; size range 80- μm,2
same,Percentage of cell aggregates by size,[3]; size range 80- μm,1%
same,Number of cell aggregates by size,[3]; size range 100- μm,5
same,Percentage of cell aggregates by size,[3]; size range 100- μm,2%
same,Number of cell aggregates by size,[3]; size range 120- μm,25
same,Percentage of cell aggregates by size,[3]; size range 120- μm,12%
same,Number of cell aggregates by size,[3]; size range 140- μm,58
same,Percentage of cell aggregates by size,[3]; size range 140- μm,28%
same,Number of cell aggregates by size,[3]; size range 160- μm,56
same,Percentage of cell aggregates by size,[3]; size range 160- μm,27%
same,Number of cell aggregates by size,[3]; size range 180- μm,31
same,Percentage of cell aggregates by size,[3]; size range 180- μm,15%
same,Number of cell aggregates by size,[3]; size range 200- μm,13
same,Percentage of cell aggregates by size,[3]; size range 200- μm,6%
same,Number of cell aggregates by size,[3]; size range 220- μm,8
same,Percentage of cell aggregates by size,[3]; size range 220- μm,4%
same,Number of cell aggregates by size,[3]; size range 240- μm,3
same,Percentage of cell aggregates by size,[3]; size range 240- μm,1%
same,Number of cell aggregates by size,[3]; size range 260- μm,4
same,Percentage of cell aggregates by size,[3]; size range 260- μm,2%
same,Number of cell aggregates by size,[3]; size range 280- μm,1
same,Percentage of cell aggregates by size,[3]; size range 280- μm,0%
same,Number of cell aggregates by size,[3]; size range 300- μm,0
same,Percentage of cell aggregates by size,[3]; size range 300- μm,0%
same,percentage of cells positive for Nanog,[4]; [6],≥ 99%
same,percentage of cells positive for OCT4,[4]; [6],≥ 98%
same,percentage of cells positive for SOX2,[4]; [6],≥ 99%
same,undifferentiated state of human iPS cell aggregates,[4]; aggregates formed by addition of Y-27632 and TRAP-6 (5 μM),remained undifferentiated
same,cell aggregation suppression (aggregate formation observed by microscopy),[1]; TRAP-6 2 μM with Y-27632 10 μM,aggregation was suppressed and smaller aggregates were formed
same,aggregate size observed by microscopy,"[1]; TRAP-6 5 μM with Y-27632 10 μM, 6-well plate, 75 rpm, compared to no TRAP-6",formation of smaller aggregates
same,cell aggregation suppression (aggregate formation observed by microscopy),[1]; TRAP-6 10 μM with Y-27632 10 μM,aggregation was suppressed and smaller aggregates were formed
same,cell aggregation suppression (aggregate formation observed by microscopy),[1]; TRAP-6 50 μM with Y-27632 10 μM,aggregation was suppressed and smaller aggregates were formed
same,proliferation of seeded cells (cell yield) at Day 5 of culture,[5],8.5 fold
